Experimental data reported in US8722687B2, “Imidazo [1,2-A]pyridine derivatives as FGFR kinase inhibitors for use in therapy” (Astex Therapeutics Ltd, priority 2009, dated 2014).

Assays:
[1] = molecular target: T1, VEGFR2 (Homo sapiens, UniProt P35968); test: VEGFR2 in vitro kinase inhibitory activity assay; type: biochemical; settings: read-out: VEGFR2 IC50(μM) or % I
T1 construct: purchased Upstate
Protocol: FGFR3, VEGFR2 and PDGFR in vitro Kinase Inhibitory Activity Assays
Enzymes (from Upstate), prepared at 2× final concentration, were incubated with test compounds, biotinylated Flt3 substrate (biotin-VASSDNEYFYVDF) (Cell Signalling Technology Inc.) and ATP in the appropriate assay buffer (Table 1). The reaction was allowed to proceed for 3 hours (FGFR3), 1 hour (VEGFR2, PDGFR-beta) at room temperature on a plate shaker at 700 rpm before being stopped with 35 mM EDTA, pH 8 (FGFR3, VEGFR2) or 55 mM EDTA, pH 8 (PDGFR-beta). 5× detection mix/50 mM HEPES pH 7.5, 0.1% BSA, 11.34 nM Eu-anti-pY (PY20) (PerkinElmer) 74 nM SA-XL665 (Cisbio) for FGFR3, 50 mM HEPES, pH 7.5, 0.1% BSA, 11.34 nM Eu-anti-pY (PY20), 187.5 nM SA-XL665 for VEGFR2 and 50 mM HEPES, pH 7.5, 0.1% BSA, 11.34 nM Eu-anti-pY (PT66) (PerkinElmer), 375 nM SA-XL665 (Cisbio) for PDGFR-beta) was then added to each well and the plate sealed and incubated at room temperature for one hour on a plate shaker at 700 rpm. The plate was then read on a Packard Fusion plate reader or a BMG Pherastar both in TRF mode.
Kinase Assay buffers were:
B: 50 mM HEPES pH 7.5, 6 mM MnCl2, 1 mM DTT, 0.01% TritonX-100, 0.1 mM Sodium orthovanadate

[2] = tested on: parental wild-type Ba/F3 cells; test: Ba/F3 (WT) cell proliferation assay (Alamar Blue); type: cell-based, murine; settings: read-out: BaF3 WT prolif; for IC50: BaF3, 72 hours, with mouse IL-3
Protocol: Ba/F3-TEL-FGFR3 & Ba/F3 (WT) Cell Proliferation Assays
Stably transfected Ba/F3-TEL-FGFR3 cells were plated out into black 96-well tissue culture plates with clear bottoms in RPMI medium containing 10% FBS and 0.25 mg/ml G418 at a density of 5×10^3 cells/well (200 μl per well). The parental wild-type Ba/F3 cells (DSMZ no.: ACC 300) were plated out into black 96-well tissue culture plates with clear bottoms in RPMI medium containing 10% FBS and 2 ng/ml mouse IL-3 (R&D Systems) at a density of 2.5×10^3 cells/well (200 μl per well). Plates were placed in an incubator overnight before adding the compounds the following day. Dilutions of compounds were made in DMSO starting at 10 mM and were diluted into the wells to give a final DMSO concentration of 0.1% in assay. Compounds were left on the cells for 72 hours before the plates were removed from the incubator and 20 μl of Alamar Blue™ (Biosource) was added to each well. Plates were placed in the incubator for 4-6 hours before reading plates at 535 nm (excitation)/590 nm (emission) on a Fusion plate reader (Packard). Where inhibition is high an IC50 can be determined.

[3] = tested on: human prostate cancer PC3 cells; test: EB1 cellular assay (Eb1 Comet assay, microtubule disruption); type: cell-based; settings: PC-3, lowest active concentration: Eb1 foci absent in at least 50% of treated PC3 cells, 1 hour, read-out: Eb1 LAC
Protocol: The Eb1 Comet assay relies on the detection of the Eb1 protein at the plus end of polymerizing microtubules (Mimori-Kiyosue, 2000) using indirect immunofluorescence. Disruption of microtubule dynamics through de-polymerization or stabilization results in a de-localization of Eb1 from the growing microtubule ends and this is visualized by the disappearance of Eb1 containing cytoplasmic foci.
Briefly, human prostate cancer PC3 cells obtained from the American Type Culture Collection were grown in 96-well plates (Greiner, cat. no. 655090) in HAM's F12 medium as recommended by the provider (ATCC). The cells were treated for 1 hour at 37° C. with compounds dissolved in DMSO (0.6% final DMSO concentration). The culture medium was then removed by aspiration and the cells were fixed by adding cold methanol (−20° C.). After a 15 minutes incubation at −20° C., the cells were washed twice with DPBS (Gibco) containing 0.5% Triton X-100. Mouse Eb1 antibody (BD Transduction Laboratories, cat. no. 610534) was added to the cells (1/250 dilution in DPBS containing 1% BSA) and incubated overnight at room temperature. The antibody was subsequently removed and the cells washed twice with DPBS, 0.5% Triton X-100. Secondary goat anti-mouse antibody conjugated to Alexa 488 fluorescent dye (Molecular Probes) was added at a 1/500 dilution in DPBS, 1% BSA and incubated for 1 hour at 37° C. The cells were washed twice with DPBS, 0.5% Triton X-100 and then DPBS containing 0.5% Triton X-100 and 1/5000 Hoechst 33342 (Molecular Probes) was added. Microscopy based Eb1 foci visualization was carried out using an IN Cell Analyser 1000 (Amersham Biosciences) using a 20× objective. Compound dependent microtubule disruption was visually determined by the disappearance in Eb1 foci. The lowest active concentration (LAC) was determined as the concentration where Eb1 foci were absent in at least 50% of the treated cells. Herein the effects of test compounds are expressed as pLAC (the negative log value of the LAC-value)

T1 sequence (P35968 20-1356): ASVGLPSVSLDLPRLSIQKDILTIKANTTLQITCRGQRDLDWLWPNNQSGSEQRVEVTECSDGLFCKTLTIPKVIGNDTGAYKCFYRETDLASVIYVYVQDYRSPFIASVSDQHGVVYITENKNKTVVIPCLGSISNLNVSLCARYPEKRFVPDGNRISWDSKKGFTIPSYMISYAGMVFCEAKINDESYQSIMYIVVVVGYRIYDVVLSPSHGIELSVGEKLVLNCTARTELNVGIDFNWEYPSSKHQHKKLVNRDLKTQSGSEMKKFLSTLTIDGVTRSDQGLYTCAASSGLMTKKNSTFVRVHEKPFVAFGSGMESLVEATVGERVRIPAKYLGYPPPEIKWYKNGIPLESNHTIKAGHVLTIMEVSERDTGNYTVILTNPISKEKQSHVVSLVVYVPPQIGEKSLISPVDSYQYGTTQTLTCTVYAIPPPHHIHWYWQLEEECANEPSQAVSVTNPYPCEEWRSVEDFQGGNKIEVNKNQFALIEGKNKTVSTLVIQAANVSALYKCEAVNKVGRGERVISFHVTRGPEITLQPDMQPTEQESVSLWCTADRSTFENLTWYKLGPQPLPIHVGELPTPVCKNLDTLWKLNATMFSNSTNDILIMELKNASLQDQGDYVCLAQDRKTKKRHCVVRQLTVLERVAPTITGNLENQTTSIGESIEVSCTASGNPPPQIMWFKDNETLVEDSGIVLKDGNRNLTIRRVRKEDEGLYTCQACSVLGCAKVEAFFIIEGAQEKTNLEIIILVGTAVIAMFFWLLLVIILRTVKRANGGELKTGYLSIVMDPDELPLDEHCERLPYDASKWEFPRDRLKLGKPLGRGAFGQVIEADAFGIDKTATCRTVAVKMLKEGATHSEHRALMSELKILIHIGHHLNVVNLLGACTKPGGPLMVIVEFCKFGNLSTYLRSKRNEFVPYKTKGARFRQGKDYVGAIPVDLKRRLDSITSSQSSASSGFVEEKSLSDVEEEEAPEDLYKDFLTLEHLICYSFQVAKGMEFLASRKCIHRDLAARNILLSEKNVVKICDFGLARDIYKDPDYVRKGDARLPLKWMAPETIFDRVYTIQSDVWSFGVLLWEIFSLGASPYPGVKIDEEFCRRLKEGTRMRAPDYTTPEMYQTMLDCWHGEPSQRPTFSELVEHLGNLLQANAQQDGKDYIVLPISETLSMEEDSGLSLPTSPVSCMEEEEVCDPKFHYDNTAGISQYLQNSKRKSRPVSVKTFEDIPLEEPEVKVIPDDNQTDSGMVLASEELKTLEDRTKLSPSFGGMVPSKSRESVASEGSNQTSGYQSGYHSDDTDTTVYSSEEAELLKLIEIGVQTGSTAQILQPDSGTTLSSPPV

Compound	IC50 [1]	IC50 [2]	minimal effective concentration [3]	inhibition at 10 µM ([2]; Mus musculus, BaF3, 72 h)	inhibition at 1 µM ([2]; Mus musculus, BaF3, 72 h, % at 1.00 μM)	inhibition at 1 µM ([1]; 1 h, % I at 1 μM)
Cc1nc(-c2ccn3c(-c4cc(NC(=O)NCC(F)(F)F)cc(OC(C)C)c4)cnc3c2)ccc1F [Compound F-3, 1-{3-[7-(5-Fluoro-6-methyl-pyridin-2-yl)-imidazo[1,2-a]pyridin-3-yl]-5-isopropoxy-phenyl}-3-(2,2,2-trifluoro-ethyl)-urea]	0.48 µM	~8000 nM	> 10 µM	–	–	–
CCOc1cc(NC(=O)NCC(F)(F)F)cc(-c2cnc3cc(-c4ccnc(C(F)(F)F)n4)ccn23)c1 [Compound F-16, 1-{3-Ethoxy-5-[7-(2-trifluoromethyl-pyrimidin-4-yl)-imidazo[1,2-a]pyridin-3-yl]-phenyl}-3-(2,2,2-trifluoro-ethyl)-urea]	0.4 µM	–	> 10 µM	32%	–	–
CCNC(=O)Nc1cc(OC(C)C)cc(-c2cnc3cc(-c4nncs4)ccn23)c1 [Compound F-10, 1-Ethyl-3-[3-isopropoxy-5-(7-[1,3,4]thiadiazol-2-yl-imidazo[1,2-a]pyridin-3-yl)-phenyl]-urea]	0.36 µM	–	5 µM	34%	–	–
CC(C)Oc1cc(NC(=O)NCC(F)(F)F)cc(-c2cnc3cc(-c4ccnc(C(F)(F)F)n4)ccn23)c1 [Compound F-8, 1-{3-Isopropoxy-5-[7-(2-trifluoromethyl-pyrimidin-4-yl)-imidazo[1,2-a]pyridin-3-yl]-phenyl}-3-(2,2,2-trifluoro-ethyl)-urea]	1.2 µM	~2000 nM	5 µM	–	–	–
CC(C)Oc1cc(NC(=O)NCC(F)(F)F)cc(-c2cnc3cc(-c4nncs4)ccn23)c1.Cl [Compound F-19, 1-[3-Isopropoxy-5-(7-[1,3,4]thiadiazol-2-yl-imidazo[1,2-a]pyridin-3-yl)-phenyl]-3-(2,2,2-trifluoro-ethyl)-urea]	0.092 µM	–	3 µM	–	0%	–
Cc1nnc(-c2ccn3c(-c4cc(NC(=O)NCC(F)(F)F)cc(OC5CCC5)c4)cnc3c2)o1 [Compound F-11, 1-{3-Cyclobutoxy-5-[7-(5-methyl-[1,3,4]oxadiazol-2-yl)-imidazo[1,2-a]pyridin-3-yl]-phenyl}-3-(2,2,2-trifluoro-ethyl)-urea]	–	–	> 10 µM	14%	–	59%
